Four compounds from patent US20230042936A1, “PYRIDO[2,3-d]PYRIMIDIN-7(8H)-ONES AS CDK INHIBITORS” (PROSENESTAR LLC, priority 2020, published 2023) can be followed below.

As usually defined, the GI50 is the concentration giving 50% growth inhibition.

Like-named read-outs stand apart in the source and are kept apart here.

One test concerns the target CDC7/DBF4 (Homo sapiens, UniProt O00311). Description: Kinase profiling. It counts as biochemical.
A further test deals with HIPK2 (Homo sapiens, UniProt Q9H2X6). Briefly: Kinase profiling. The test is classed as biochemical.
HIPK2, sequence (Q9H2X6 whole entry): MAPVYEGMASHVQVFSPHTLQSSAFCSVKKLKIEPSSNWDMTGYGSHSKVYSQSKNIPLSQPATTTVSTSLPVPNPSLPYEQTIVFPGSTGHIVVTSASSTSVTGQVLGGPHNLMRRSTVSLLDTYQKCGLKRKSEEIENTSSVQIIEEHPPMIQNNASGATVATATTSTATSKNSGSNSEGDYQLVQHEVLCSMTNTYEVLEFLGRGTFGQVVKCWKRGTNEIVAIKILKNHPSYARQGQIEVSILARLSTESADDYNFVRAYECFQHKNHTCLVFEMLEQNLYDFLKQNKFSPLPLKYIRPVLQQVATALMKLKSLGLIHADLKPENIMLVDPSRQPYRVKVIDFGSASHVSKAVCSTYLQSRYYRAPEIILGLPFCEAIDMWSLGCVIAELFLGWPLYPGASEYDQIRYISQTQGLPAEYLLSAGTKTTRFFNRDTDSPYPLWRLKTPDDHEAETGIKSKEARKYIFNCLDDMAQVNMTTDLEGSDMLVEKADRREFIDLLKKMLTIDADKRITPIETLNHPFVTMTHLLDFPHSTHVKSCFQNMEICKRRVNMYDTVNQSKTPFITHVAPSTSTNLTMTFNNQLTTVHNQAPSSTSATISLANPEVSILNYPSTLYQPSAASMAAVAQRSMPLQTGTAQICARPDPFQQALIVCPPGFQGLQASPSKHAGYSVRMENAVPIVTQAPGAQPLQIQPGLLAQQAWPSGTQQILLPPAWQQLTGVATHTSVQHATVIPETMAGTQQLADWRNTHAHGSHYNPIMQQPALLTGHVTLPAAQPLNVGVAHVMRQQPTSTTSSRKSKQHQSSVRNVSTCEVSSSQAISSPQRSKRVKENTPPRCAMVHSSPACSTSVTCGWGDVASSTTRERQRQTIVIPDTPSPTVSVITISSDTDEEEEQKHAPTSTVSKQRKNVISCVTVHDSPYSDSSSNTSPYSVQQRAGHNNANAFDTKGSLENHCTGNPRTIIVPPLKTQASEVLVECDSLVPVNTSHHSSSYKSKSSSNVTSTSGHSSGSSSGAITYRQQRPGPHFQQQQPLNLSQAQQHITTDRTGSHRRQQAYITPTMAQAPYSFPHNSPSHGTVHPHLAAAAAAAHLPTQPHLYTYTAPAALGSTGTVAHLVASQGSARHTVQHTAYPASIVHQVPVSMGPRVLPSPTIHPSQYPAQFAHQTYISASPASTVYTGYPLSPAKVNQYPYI
In the next test the target is T1, DYRK2 (Homo sapiens, UniProt Q92630).
T1 sequence (Q92630 1-601): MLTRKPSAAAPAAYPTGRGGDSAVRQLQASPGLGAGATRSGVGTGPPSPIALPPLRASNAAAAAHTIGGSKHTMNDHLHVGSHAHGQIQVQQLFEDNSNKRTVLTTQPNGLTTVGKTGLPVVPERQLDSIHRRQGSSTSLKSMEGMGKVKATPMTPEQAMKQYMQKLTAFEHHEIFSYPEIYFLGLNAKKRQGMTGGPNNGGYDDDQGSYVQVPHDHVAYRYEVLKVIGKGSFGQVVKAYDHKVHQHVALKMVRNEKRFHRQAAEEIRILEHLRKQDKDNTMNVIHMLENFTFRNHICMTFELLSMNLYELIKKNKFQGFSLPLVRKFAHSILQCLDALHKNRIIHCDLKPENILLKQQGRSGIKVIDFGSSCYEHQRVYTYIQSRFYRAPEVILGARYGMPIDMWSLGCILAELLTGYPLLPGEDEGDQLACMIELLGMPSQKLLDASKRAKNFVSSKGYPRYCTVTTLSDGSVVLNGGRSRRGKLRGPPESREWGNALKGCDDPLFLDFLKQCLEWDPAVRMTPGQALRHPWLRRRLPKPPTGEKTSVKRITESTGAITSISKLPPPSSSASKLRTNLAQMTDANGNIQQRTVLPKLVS
Briefly: Kinase profiling. The test is classed as biochemical.

Another test concerns the target CDK3/CycE1 (Homo sapiens, UniProt Q00526). Briefly: Kinase profiling. The note with it: 10 semi-logarithmic dilutions from 50 μM, singlicate. The test is classed as biochemical.
A further test addresses ERK1 (Homo sapiens, UniProt P27361). Briefly: Kinase profiling. The note with it: 10 semi-logarithmic dilutions from 50 μM, singlicate. It counts as biochemical.
Test [1] concerns H460 lung carcinoma cell line. Briefly: Proliferation assay: determination of GI50. The test is classed as cell-based, human. The note with it: Table 3, 48 h, n = 2 independent experiments. Here is the method: (§1) The following human tumor cell lines, all Retinoblastoma (Rb)-proficient, were used in this study: MDA-MB231 (breast cancer), MDA-MB453 (breast cancer), U87MG (glioblastoma) and H460 (lung cancer). MDA-MB468 (breast cancer) and SW1783 (glioblastoma) Rb-deficient cells were also included in the study, as well as the MCF10A non-transformed mammary epithelial cell line. Tumor cell lines were maintained in DMEM or RPMI-1640 medium, depending on the cell line, supplemented with 10% FBS. MCF10A cells were grown in complete mammary epithelial growth medium (MEGM, Lonza). Cell lines were authenticated by short tandem repeat (STR) loci profiling with the GenePrint® 10 System (Promega).
(§2) All human cancer cell lines (Table 2) were obtained from the American Type Culture Collection, and were maintained in DMEM (Hyclone) or RPMI-1640 medium (Sigma) supplemented with 10% fetal bovine serum (Sigma). Non-transformed MCF10 cell line was maintained in MEGM Mammary Epithelial Cell Growth Medium (Lonza). Immortalized mouse embryonic fibroblasts (MEFs) were maintained in DMEM with 10% fetal bovine serum.
(§3) 48 h later cells were fixed with PFA 4% for 15 minutes, stained with 10 μg/ml Hoechst 33342 (Molecular Probes, Thermo Fisher) for 30 minutes and washed twice with PBS. Cells were imaged in a high content screening system (Opera Phoenix™, Perkin Elmer) using a 20× dry objective (30 fields/well). Cell counts were determined by the Opera software (Perkin Elmer) and data were further processed with SPSS software. GI50 was calculated by estimating the absolute IC50 using dose-response inhibition tool in Prism6 (Graphpad Software Inc.).

In test [2] the test system is MDA-MB-231 breast carcinoma cell line. Description: Proliferation assay: determination of GI50. The test is classed as cell-based, human. The note with it: Table 3, 48 h, n = 3 independent experiments, read-out: GI50 MDA-MB231. The method, then:
as §1, §2, §3

Test [3] concerns MCF10 non-transformed mammary epithelial cell line. Description: Proliferation assay: determination of GI50. The note with it: Table 3, 48 h, n = 2 independent experiments. The test is classed as cell-based, human. The method, then: as §1, §2, §3
In test [4] the test system is U87MG glioblastoma cell line. Briefly: Proliferation assay: determination of GI50. The note with it: Table 3, 48 h, n = 3 independent experiments, read-out: GI50 U87MG. The test is classed as cell-based, human. The method, then:
as §1, §2, §3

The next test concerns the target CDK12wt/CycK (Homo sapiens, UniProt Q9NYV4). Description: Kinase profiling. The note with it: 10 semi-logarithmic dilutions from 50 μM, singlicate. It counts as biochemical.
The next test concerns the target CDK8/CycC (Homo sapiens, UniProt P49336). Description: Kinase profiling. It counts as biochemical. The note with it: 10 semi-logarithmic dilutions from 50 μM, singlicate.
For a further test, the target named is T2, AKT1 aa1-480 (Homo sapiens, UniProt P31749).
T2 construct: AKT1 aa1-480
Description: Kinase profiling. It counts as biochemical. The note with it: 10 semi-logarithmic dilutions from 50 μM, singlicate.

The next test has as its target CDK3/CycC (Homo sapiens, UniProt Q00526). Briefly: Kinase profiling. It counts as biochemical. The note with it: 10 semi-logarithmic dilutions from 50 μM, singlicate.
For a further test, the target named is CDK19/CycC (Homo sapiens, UniProt Q9BWU1). Description: Kinase profiling. The note with it: 10 semi-logarithmic dilutions from 50 μM, singlicate. It counts as biochemical.
For test [5], the system named is MDA-MB-231 human breast cancer cells. Briefly: Cell cycle analysis (DNA content, flow cytometry). It counts as cell-based. The note with it: GI50 concentration; FIG. 1. Here is the method: FIG. 1 depicts DNA content profiles of MDA-MB-231 human breast cancer cells treated with subject compounds or commercial CDK inhibitors, showing the percentage of cells at the different cell cycle phases after 48 hours of the treatments indicated. (n=6 technical replicates).
Cells were collected by trypsinization, washed with PBS and fixed with cold 70% ethanol. Cells were treated with 250 μg/ml RNase (Qiagen) for 30 minutes at 37° C. and stained with 10 μg/ml Propidium Iodide (Sigma). Cell cycle was analyzed by flow cytometry using a LSR Fortessa Analyzer. Cell cycle profiles were generated and analyzed with FlowJo software.
Cells were collected by tripsinization at several times after treatment with the indicated compounds and, then, fixed with cold 70% Ethanol. DNA content was determined by staining with propidium iodide (10 μg/ml, Sigma Aldrich). Data acquisition was performed with a LSR Fortessa analyzer (BD Biosciences) and analysed using FlowJo software.

Another test deals with CDK5/p35NCK (Homo sapiens, UniProt Q00535). Briefly: Kinase profiling. The test is classed as biochemical. The note with it: 10 semi-logarithmic dilutions from 50 μM, singlicate.
The next test addresses CDK7/CycH/MAT1 (Homo sapiens, UniProt P50613). Briefly: Kinase profiling. The test is classed as biochemical. The note with it: 10 semi-logarithmic dilutions from 50 μM, singlicate.
In a further test the target is PCTAIRE1/CycY (Homo sapiens, UniProt Q00536). Briefly: Kinase profiling. It counts as biochemical. The note with it: 10 semi-logarithmic dilutions from 50 μM, singlicate.
Another test addresses DYRK1A (Homo sapiens, UniProt Q13627). Briefly: Kinase profiling. The test is classed as biochemical. The note with it: 10 semi-logarithmic dilutions from 50 μM, singlicate.
Another test deals with CDK5/p25NCK (Homo sapiens, UniProt Q00535). Briefly: Kinase profiling. The test is classed as biochemical. The note with it: 10 semi-logarithmic dilutions from 50 μM, singlicate.
A further test addresses PIM1 (Homo sapiens, UniProt P11309). Briefly: Kinase profiling. It counts as biochemical. The note with it: 10 semi-logarithmic dilutions from 50 μM, singlicate.
Where [6] appears, read: 10 semi-logarithmic dilutions from 50 μM, singlicate, read-out: IC50 CDC7/DBF4.
[7] abbreviates: 10 semi-logarithmic dilutions from 50 μM, singlicate, read-out: IC50 HIPK2.

CDC7/DBF4, sequence (O00311 whole entry): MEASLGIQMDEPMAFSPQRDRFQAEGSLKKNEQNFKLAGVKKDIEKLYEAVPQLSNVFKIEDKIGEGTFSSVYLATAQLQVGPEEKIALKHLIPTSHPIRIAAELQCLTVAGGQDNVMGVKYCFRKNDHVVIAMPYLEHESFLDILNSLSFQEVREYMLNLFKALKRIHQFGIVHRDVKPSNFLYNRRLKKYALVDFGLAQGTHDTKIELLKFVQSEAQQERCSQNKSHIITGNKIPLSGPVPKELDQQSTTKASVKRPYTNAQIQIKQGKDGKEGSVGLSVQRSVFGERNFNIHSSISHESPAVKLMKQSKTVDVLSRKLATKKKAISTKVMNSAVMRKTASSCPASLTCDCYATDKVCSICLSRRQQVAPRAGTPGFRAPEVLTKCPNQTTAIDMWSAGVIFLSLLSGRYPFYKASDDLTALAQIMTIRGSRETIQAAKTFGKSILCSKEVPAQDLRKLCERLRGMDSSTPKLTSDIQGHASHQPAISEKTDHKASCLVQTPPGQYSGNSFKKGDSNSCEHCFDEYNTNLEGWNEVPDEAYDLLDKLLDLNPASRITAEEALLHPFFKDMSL
CDC7/DBF4, sequence (Q9UBU7 whole entry partner): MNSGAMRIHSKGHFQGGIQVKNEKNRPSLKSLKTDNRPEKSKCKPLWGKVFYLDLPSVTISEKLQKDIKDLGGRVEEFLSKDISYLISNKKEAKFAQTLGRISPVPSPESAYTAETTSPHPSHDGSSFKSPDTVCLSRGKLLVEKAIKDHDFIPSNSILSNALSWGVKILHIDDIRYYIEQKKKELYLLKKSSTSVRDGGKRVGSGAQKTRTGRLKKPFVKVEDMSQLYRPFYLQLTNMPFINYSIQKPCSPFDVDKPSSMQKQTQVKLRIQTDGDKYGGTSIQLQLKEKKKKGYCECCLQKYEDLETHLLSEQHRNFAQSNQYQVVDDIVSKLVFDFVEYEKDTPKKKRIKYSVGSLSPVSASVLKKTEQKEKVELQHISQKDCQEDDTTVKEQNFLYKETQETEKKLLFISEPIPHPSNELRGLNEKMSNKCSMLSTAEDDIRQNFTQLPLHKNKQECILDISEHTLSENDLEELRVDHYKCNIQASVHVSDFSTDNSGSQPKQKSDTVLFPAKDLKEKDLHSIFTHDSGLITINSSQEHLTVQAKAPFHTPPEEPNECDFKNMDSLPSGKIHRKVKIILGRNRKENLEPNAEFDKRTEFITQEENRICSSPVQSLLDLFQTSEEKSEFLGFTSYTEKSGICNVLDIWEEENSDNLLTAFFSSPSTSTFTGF
CDK8/CycC, sequence (P49336 whole entry, the tested form may be a part): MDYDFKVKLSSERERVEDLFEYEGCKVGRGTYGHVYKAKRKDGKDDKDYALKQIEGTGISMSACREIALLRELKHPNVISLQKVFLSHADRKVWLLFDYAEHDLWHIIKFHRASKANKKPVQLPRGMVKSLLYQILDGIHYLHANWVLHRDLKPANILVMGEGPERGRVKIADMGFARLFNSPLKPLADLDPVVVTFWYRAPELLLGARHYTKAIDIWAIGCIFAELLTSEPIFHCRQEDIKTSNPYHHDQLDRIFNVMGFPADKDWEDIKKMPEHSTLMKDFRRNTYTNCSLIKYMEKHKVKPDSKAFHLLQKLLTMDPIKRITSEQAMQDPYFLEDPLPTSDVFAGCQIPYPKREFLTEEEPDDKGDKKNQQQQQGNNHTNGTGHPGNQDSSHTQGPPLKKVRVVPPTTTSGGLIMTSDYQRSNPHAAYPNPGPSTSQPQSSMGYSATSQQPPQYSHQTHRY
CDK8/CycC, sequence (P24863 whole entry partner, the tested form may be a part): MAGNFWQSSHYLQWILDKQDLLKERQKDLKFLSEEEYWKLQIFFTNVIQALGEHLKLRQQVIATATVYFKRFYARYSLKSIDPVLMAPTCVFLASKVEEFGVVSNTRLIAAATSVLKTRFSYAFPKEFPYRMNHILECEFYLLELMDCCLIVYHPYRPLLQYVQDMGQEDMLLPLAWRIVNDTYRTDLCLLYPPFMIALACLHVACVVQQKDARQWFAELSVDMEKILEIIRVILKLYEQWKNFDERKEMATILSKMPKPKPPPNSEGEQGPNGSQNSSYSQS
ERK1, sequence (P27361 whole entry): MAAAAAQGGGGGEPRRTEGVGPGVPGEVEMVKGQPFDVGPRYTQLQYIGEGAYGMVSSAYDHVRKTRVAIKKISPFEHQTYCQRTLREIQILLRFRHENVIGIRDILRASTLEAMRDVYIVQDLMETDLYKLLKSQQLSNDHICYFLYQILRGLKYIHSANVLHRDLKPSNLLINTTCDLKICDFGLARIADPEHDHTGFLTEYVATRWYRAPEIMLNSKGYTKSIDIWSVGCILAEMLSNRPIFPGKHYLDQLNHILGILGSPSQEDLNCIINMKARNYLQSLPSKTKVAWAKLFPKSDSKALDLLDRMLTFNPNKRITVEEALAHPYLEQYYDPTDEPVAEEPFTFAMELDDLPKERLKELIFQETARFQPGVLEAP
CDK3/CycE1, sequence (Q00526 whole entry): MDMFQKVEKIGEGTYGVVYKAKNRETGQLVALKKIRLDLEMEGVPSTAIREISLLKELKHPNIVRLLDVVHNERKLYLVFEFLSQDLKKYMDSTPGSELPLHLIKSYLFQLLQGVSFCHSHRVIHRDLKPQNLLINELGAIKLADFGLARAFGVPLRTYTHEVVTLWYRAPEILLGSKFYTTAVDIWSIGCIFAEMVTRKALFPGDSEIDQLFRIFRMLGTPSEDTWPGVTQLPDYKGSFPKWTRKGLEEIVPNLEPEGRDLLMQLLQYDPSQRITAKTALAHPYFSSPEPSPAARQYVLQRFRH
CDK3/CycE1, sequence (P24864 whole entry partner): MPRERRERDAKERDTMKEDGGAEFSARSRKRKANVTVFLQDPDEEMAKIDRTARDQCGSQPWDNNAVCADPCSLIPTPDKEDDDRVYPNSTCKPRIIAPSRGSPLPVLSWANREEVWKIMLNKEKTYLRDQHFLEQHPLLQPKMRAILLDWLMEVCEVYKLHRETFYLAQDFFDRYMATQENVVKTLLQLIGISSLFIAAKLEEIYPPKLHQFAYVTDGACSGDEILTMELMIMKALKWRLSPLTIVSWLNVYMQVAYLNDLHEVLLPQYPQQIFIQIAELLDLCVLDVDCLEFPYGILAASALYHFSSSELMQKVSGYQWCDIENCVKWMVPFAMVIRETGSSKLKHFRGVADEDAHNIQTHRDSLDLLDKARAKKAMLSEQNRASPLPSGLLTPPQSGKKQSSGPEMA
CDK3/CycC, sequence (Q00526 whole entry): as the sequence (Q00526 whole entry) above
CDK3/CycC, sequence (P24863 whole entry partner): as the sequence (P24863 whole entry partner, the tested form may be a part) above
PIM1, sequence (P11309 whole entry, species assumed): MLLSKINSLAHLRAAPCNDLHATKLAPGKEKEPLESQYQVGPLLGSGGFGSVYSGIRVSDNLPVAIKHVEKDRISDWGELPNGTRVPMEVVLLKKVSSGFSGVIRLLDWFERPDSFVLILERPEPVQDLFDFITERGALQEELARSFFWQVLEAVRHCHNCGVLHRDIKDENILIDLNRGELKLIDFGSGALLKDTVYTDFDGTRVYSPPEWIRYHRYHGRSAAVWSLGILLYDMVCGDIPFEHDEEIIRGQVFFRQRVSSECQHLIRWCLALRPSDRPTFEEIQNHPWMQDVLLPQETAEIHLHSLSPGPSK

For the compound `CC[C@H](CO)Nc1nc(NCc2ccccc2)c2ncn(C(C)C)c2n1` [Roscovitine, reference compound], the values for the IC50 against CDC7/DBF4, on HIPK2 and on DYRK2 were 42.1 µM, over 50 µM and 38.1 µM, respectively.
Consider `CCN1CCN(Cc2ccc(Nc3ncc(F)c(-c4cc(F)c5nc(C)n(C(C)C)c5c4)n3)nc2)CC1` [Abemaciclib, reference compound], for which the IC50 at CDK3/CycE1 is over 50 µM; on CDC7/DBF4 (setting [6]) it was over 50 µM; at ERK1, over 50 µM; on HIPK2 (setting [7]), 46.4 µM; against CDK12wt/CycK it was 21 µM; against CDK8/CycC it was over 50 µM. For the same compound, the values for the IC50 at AKT1 aa1-480, against CDK3/CycC and at CDK19/CycC were over 50 µM, 49.7 µM and over 50 µM, respectively. Also, the GI50 was found to be 3.1 µM in test [1] (Homo sapiens, NCI-H460); 1.5 µM in [2] (Homo sapiens, MDA-MB-231); 1.24 µM in test [3] (Homo sapiens, MCF10); 0.47 µM in test [4] (Homo sapiens, U-87 MG).
Take `O=C1NC(=NCc2cccs2)S/C1=C\c1ccc2ncccc2c1` [RO-3306, reference compound]: the GI50 in test [1] was 25.6 µM; in test [2] it was 3.2 µM; in test [3] it was 2.8 µM; in test [4], over 50 µM.
`CN(C)C(=O)c1cc2cnc(Nc3ccc(N4CCNCC4)cn3)nc2n1C1CCCC1` [Ribociclib, reference compound]: the “cell cycle arrest by DNA content” value in test [5] is on record as “robust G0/G1-phase arrest”. The IC50 on CDK3/CycE1 is 1.66 µM; on CDC7/DBF4 (setting [6]), 0.318 µM; against CDK5/p35NCK, 0.641 µM; against ERK1, over 50 µM; at CDK7/CycH/MAT1, 7.35 µM; on HIPK2 (setting [7]), 0.0397 µM. For the same compound, the IC50 on PCTAIRE1/CycY worked out at 0.589 µM; on CDK12wt/CycK, 0.495 µM; against DYRK1A, 0.0145 µM; at CDK8/CycC it was 2.02 µM; at CDK5/p25NCK it was 2.19 µM; on DYRK2 (10 semi-logarithmic dilutions from 50 μM, singlicate, read-out: IC50 DYRK2), 0.0139 µM. The IC50 at AKT1 aa1-480 was over 50 µM; against CDK3/CycC, 0.323 µM; on PIM1 it was 0.0244 µM; at CDK19/CycC, 0.362 µM. Moreover, the concentration for 50% growth inhibition (GI50) came to 1.47 µM in test [1] (Homo sapiens, NCI-H460); 0.7 µM in test [2] (Homo sapiens, MDA-MB-231); 0.54 µM in [3] (Homo sapiens, MCF10); 0.26 µM in test [4] (Homo sapiens, U-87 MG).
